The data set is described as follows: Solubility of Tadalafil in 2-pyrrolidone. Type of data set: physicochemical. The conditions noted are these: compared with ethanol as solvent. The source says:
Pyrroplus Manufacturing Process” as described above, overcomes several problems associated with the low solubility of Tadalafil. […] Conversely, using ethanol as solvent requires either increased amount of solvent or small quantity of Tadalafil, which both incommode the preparation of a pharmaceutical composition.

Take `CN1CC(=O)N2[C@H](c3ccc4c(c3)OCO4)c3[nH]c4ccccc4c3C[C@@H]2C1=O` [Tadalafil]: the “solubility when dissolved in 2-pyrrolidone” value was “its solubility increases and reaches high values”.

The values above are taken from patent US9561186B2, “Method for improving the bioavailability of low aqueous solubility drugs” (PHARMATHEN S.A., priority 2012, dated 2017).
